Read-outs that look alike come from different tables or passages of the source.
Experiments:
MDA-MB-231 = test: Cell viability assay (PrestoBlue, 72 h), MDA-MB-231; format: cell-based, human; conditions: for viability at 10 µM / IC50: Homo sapiens; for viability at 10 µM: MDA-MB-231, 72 h, mean of at least two determinations, within ± 15%, read-out: Survival rate at 10 uM MDA-MB-231; for IC50: MDA-MB-231; for Activity toward TNBC cell lines (in words): TNBC cell lines MDA-MB-231, BT-549, MDA-MB-453
Experimental: (§1) The cells were seeded in 384-well clear plates with a density of 8 × 10^2 cells/well for MCF-10A and BT-549 cell lines, 1 × 10^3 cells/well for MDA-MB-453, and 2 × 10^3 cells/well for MDA-MB-231 overnight. Then cells were treated with the indicated concentrations of test compounds for 72 h. At the end of incubation, 5 μL of PrestoBlue Cell Viability Reagent (Invitrogen, Carlsbad, CA, USA) was added to each well with 50 μL medium. The plates were incubated for an additional 1.5 h at 37 °C in a humidified 5% CO2 atmosphere; the relative fluorescence unit (RFU) in the reaction mixture will then be recorded (Ex560/Em590) by Victor^2-Vplate reader (PerkinElmer, Waltham, MA, USA). The cell lines were chosen based on the mutation status of PTEN and/or TP53: MCF-10A, the nonmalignant mammary epithelial cell line; BT-549 with mutation of PTEN and TP53; MDA-MB-453 with mutation of PTEN; MDA-MB-231 with mutation of TP53[47].

[1] = system: MCF10A, a nonmalignant mammary epithelial cell line; test: Cell viability assay (PrestoBlue, 72 h), MCF10A; format: cell-based; conditions: for Survival rate at 10 uM MCF10A / MCF-10A Inhibition rate: human, 72 h, 10 µM
Experimental: as §1

BT-549 = test: Cell viability assay (PrestoBlue, 72 h), BT-549; format: cell-based; conditions: Homo sapiens; for viability at 10 µM: BT-549, 72 h, mean of at least two determinations, within ± 15%, read-out: Survival rate at 10 uM BT-549; for IC50: BT-549
Experimental: as §1

MDA-MB-453 = test: Cell viability assay (PrestoBlue, 72 h), MDA-MB-453; format: cell-based; conditions: Homo sapiens; for viability at 10 µM: MDA-MB-453, 72 h, mean of at least two determinations, within ± 15%, read-out: Survival rate at 10 uM MDA-MB-453; for IC50: MDA-MB-453
Experimental: as §1

mu-opioid receptor (MOR) = mu-opioid receptor (MOR) (Homo sapiens, UniProt P35372); test: FLIPR calcium assay in CHO-K1/MOR/Gα15 cells
[2] = Figure 3C, unit inferred, read-out: IC50 values MDA-MB-231
[3] = Figure 3C, unit inferred, read-out: IC50 values BT-549
[4] = Figure 3C, unit inferred, read-out: IC50 values MDA-MB-453
[5] = Figure 4B, read-out: MDA-MB-231 IC50
[6] = Figure 4B, read-out: BT-549 IC50
[7] = Figure 4B, read-out: MDA-MB-453 IC50

Sequence of mu-opioid receptor (MOR) (P35372 whole entry): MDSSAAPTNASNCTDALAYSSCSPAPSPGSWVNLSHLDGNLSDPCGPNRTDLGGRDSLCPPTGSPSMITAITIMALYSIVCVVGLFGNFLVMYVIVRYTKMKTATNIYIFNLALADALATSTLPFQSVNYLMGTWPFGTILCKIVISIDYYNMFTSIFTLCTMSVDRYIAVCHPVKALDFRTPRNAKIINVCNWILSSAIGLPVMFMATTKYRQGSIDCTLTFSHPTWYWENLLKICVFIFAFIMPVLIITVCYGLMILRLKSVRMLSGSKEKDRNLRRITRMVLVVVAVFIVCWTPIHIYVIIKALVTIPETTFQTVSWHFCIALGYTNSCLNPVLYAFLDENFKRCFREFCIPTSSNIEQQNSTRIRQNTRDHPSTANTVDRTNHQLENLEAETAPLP

SMILES | viability at 10 µM (MDA-MB-231) [%] | Cytotoxicity to MCF10A (in words) [1] | Survival rate at 10 uM MCF10A [1] [%] | viability at 10 µM (BT-549) [%] | viability at 10 µM (MDA-MB-453) [%] | other results
O=C(N/N=C/c1ccccc1Cl)c1[nH]c2ccc(Cl)cc2c1-c1ccccc1 [Compound 1] | 36 | low cytotoxicity | -7 | 12 | 17 | –
Nc1c(C(=O)c2ccccc2)sc2nc3c(cc12)CCCC3 [Compound 2] | 34 | low cytotoxicity | -5 | 16 | 15 | –
Cc1cc(C)c(-c2csc(NC(=O)c3ccc(Br)cc3)n2)c(C)c1 [Compound 3] | -14 | low cytotoxicity | 44 | 101 | 21 | IC50 (MDA-MB-231; [2]): 1490 nM; Activity toward TNBC cell lines (in words) (MDA-MB-231): broader TNBC inhibitions; IC50 (BT-549; [3]): > 20 µM; IC50 (MDA-MB-453; [4]): 5.19 µM
Cc1ccc(-c2csc(NC(=O)c3ccc(F)cc3)n2)c(C)c1 [Compound 4] | 35 | low cytotoxicity | 101 | 106 | 53 | –
CCN(C(=O)c1sc(NC(=O)CCl)c(C#N)c1C)C1CCCCC1 [Compound 5] | -12 | low cytotoxicity | 16 | 10 | -16 | –
Cn1ncc(Cl)c1C(=O)Nc1ccc2nc(NC(=O)C3CCCCC3)sc2c1 [Compound 6] | 33 | low cytotoxicity | 6 | 22 | 19 | –
CCN(CC)S(=O)(=O)c1ccc(C(=O)Nc2nc(-c3ccc(Cl)c(Cl)c3)cs2)cc1 [Compound 7] | 6 | low cytotoxicity | 117 | 54 | 29 | IC50 (MDA-MB-231; [2]): 2520 nM; Activity toward TNBC cell lines (in words) (MDA-MB-231): broader TNBC inhibitions; IC50 (BT-549; [3]): > 20 µM; IC50 (MDA-MB-453; [4]): > 20 µM
O=C(c1ccc(Oc2ccc([N+](=O)[O-])cc2)cc1)c1ccc(Oc2ccc([N+](=O)[O-])cc2)cc1 [Compound 8] | 22 | – | – | 88 | 47 | IC50 (MDA-MB-231; [2]): 10700 nM; Activity toward TNBC cell lines (in words) (MDA-MB-231): broader TNBC inhibitions; IC50 (BT-549; [3]): > 20 µM; IC50 (MDA-MB-453; [4]): > 20 µM
Cc1cccc(C(=O)Nc2nc(-c3cc(C)ccc3C)cs2)c1 [Compound 9] | 51 | low cytotoxicity | 105 | 79 | 54 | –
Cc1cc(C)c(C)c(-c2csc(NC(=O)c3cc([N+](=O)[O-])cc([N+](=O)[O-])c3)n2)c1C [Compound 10] | 21 | – | – | 52 | 25 | IC50 (MDA-MB-231; [2]): 8400 nM; Activity toward TNBC cell lines (in words) (MDA-MB-231): broader TNBC inhibitions; IC50 (BT-549; [3]): 7.68 µM; IC50 (MDA-MB-453; [4]): > 20 µM
O=C(N/N=C/c1ccc(Br)cc1)c1cc2ccccc2[nH]1 [Compound 11] | 56 | low cytotoxicity | 18 | 26 | 29 | –
COC(=O)Nc1nc2ccc(C(=O)c3ccccc3)cc2[nH]1 [Compound 12] | 35 | low cytotoxicity | 13 | 17 | 22 | –
Cc1ccc(-c2csc(NC(=O)c3ccc(F)cc3)n2)c(C)c1 [Compound 15] | – | – | – | – | – | IC50 (MDA-MB-231; [5]): 1890 nM; MCF-10A Inhibition rate [1]: -8%; IC50 (BT-549; [6]): > 10 µM; IC50 (MDA-MB-453; [7]): 9.28 µM
COc1ccc(C(=O)Nc2nc(-c3ccc(C)cc3C)cs2)cc1 [Compound 16] | – | – | – | – | – | IC50 (MDA-MB-231; [5]): 1400 nM; MCF-10A Inhibition rate [1]: 8%; IC50 (BT-549; [6]): > 10 µM; IC50 (MDA-MB-453; [7]): 6.3 µM
COC(=O)c1ccc(C(=O)Nc2nc(-c3ccc(C)cc3C)cs2)cc1 [Compound 18] | – | – | – | – | – | IC50 (MDA-MB-231; [5]): 620 nM; MCF-10A Inhibition rate [1]: 4%; Selectivity over nonmalignant mammary epithelial cell (in words) ([1]; versus MDA-MB-231): good selectivity; IC50 (BT-549; [6]): > 10 µM; IC50 (MDA-MB-453; [7]): > 10 µM
Cc1ccc(-c2csc(NC(=O)c3ccsc3)n2)c(C)c1 [Compound 19] | – | – | – | – | – | IC50 (MDA-MB-231; [5]): 2680 nM; MCF-10A Inhibition rate [1]: 14%; IC50 (BT-549; [6]): > 10 µM; IC50 (MDA-MB-453; [7]): > 10 µM
Cc1ccc(-c2csc(NC(=O)c3cc(C)on3)n2)c(C)c1 [Compound 20] | – | – | – | – | – | IC50 (MDA-MB-231; [5]): > 10000 nM; MCF-10A Inhibition rate [1]: 14%; IC50 (BT-549; [6]): > 10 µM; IC50 (MDA-MB-453; [7]): > 10 µM
O=C(Nc1ncc(-c2ccncc2)s1)c1ccc(F)cc1 [Compound 22] | – | – | – | – | – | IC50 (MDA-MB-231; [5]): > 10000 nM; Activity toward TNBC cell lines (in words) (MDA-MB-231): did not show activities; MCF-10A Inhibition rate [1]: -5%; IC50 (BT-549; [6]): > 10 µM; IC50 (MDA-MB-453; [7]): > 10 µM
COc1ccc(C(=O)Nc2ncc(-c3ccncc3)s2)cc1 [Compound 23] | – | exhibited cytotoxicity | – | – | – | IC50 (MDA-MB-231; [5]): 3980 nM; Activity toward TNBC cell lines (in words) (MDA-MB-231): moderate micro molar activities; MCF-10A Inhibition rate [1]: 35%; IC50 (BT-549; [6]): 2.6 µM; IC50 (MDA-MB-453; [7]): 7.93 µM
CN(CCNC(=O)c1ccc(C(=O)NCCN(C)Cc2ccccc2)cc1)Cc1ccccc1 [Compound 24] | – | – | – | – | – | EC50 (mu-opioid receptor (MOR)): 5.71 µM
Cc1ccc2c(Cl)c(C(=O)NCC(c3ccccc3Cl)N(C)C)sc2c1 (stereo not shown) [Compound 25] | – | – | – | – | – | EC50 (mu-opioid receptor (MOR)): 6.12 µM
O=C(Nc1ccc(S(=O)(=O)NC2CCCCC2)cc1)C1CCCCC1 [Compound 26] | – | – | – | – | – | EC50 (mu-opioid receptor (MOR)): 0.56 µM
Cc1ccc(C(=O)Nc2cnc3ccccc3c2)cc1C [Compound 27] | – | – | – | – | – | EC50 (mu-opioid receptor (MOR)): 4.32 µM
Cc1cc(N2CCN(C)CC2)nc(N2CCN(C(=O)c3ccc(C)c(C)c3)CC2)n1 [Compound 28] | – | – | – | – | – | EC50 (mu-opioid receptor (MOR)): 8.05 µM

Source: article PMC7545175 (Scientific Reports, 2020)
